Activity calls are given as the source filed them. No cut-off for these calls is given here.
Tests used:
[1] = tested on: MOLM-13; assay: Antiproliferative activity against human MOLM-13 cells assessed as inhibition of cell proliferation measured after 72 hrs by Celltiter Glo luminescent cell viability assay; format: functional, cell-based; conditions: MOLM-13, 72 h
[2] = tested on: GES1; assay: Anticancer activity against human GES1 cells assessed as inhibition of cell growth incubated for 72 hrs by cell viability assay; format: functional, cell-based
[3] = tested on: AGS; assay: Anticancer activity against human AGS cells assessed as inhibition of cell growth incubated for 72 hrs by cell viability assay; format: functional, cell-based
[4] = tested on: SNU-484; assay: Anticancer activity against human SNU484 cells assessed as inhibition of cell growth incubated for 72 hrs by cell viability assay; format: functional, cell-based
[5] = target: T1, Protein cereblon/N(6)-adenosine-methyltransferase catalytic subunit METTL3 (Homo sapiens) (UniProt Q96SW2+Q86U44); assay: PROTAC activity at CRBN/METTL3 in human MOLM-13 cells assessed as induction of METTL3 degradation at 1 uM by Western blot analysis relative to control; format: cell-based
T1 sequence (Q86U44 whole entry, looked up): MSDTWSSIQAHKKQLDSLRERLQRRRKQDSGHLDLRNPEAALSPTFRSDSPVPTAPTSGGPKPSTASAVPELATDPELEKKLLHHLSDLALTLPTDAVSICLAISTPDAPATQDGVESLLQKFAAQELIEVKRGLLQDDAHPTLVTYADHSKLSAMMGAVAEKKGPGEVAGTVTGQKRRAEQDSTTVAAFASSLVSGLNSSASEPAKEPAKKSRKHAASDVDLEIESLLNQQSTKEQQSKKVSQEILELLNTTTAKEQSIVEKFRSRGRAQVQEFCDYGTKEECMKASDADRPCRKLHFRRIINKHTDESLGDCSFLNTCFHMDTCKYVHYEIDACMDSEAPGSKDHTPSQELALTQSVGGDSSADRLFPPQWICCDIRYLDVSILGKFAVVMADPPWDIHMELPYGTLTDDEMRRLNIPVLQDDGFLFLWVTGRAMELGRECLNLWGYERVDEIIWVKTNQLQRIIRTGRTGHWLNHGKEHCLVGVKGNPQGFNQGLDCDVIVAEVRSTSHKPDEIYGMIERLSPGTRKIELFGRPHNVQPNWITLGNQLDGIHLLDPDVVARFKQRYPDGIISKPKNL
T1 sequence (Q96SW2 whole entry, looked up): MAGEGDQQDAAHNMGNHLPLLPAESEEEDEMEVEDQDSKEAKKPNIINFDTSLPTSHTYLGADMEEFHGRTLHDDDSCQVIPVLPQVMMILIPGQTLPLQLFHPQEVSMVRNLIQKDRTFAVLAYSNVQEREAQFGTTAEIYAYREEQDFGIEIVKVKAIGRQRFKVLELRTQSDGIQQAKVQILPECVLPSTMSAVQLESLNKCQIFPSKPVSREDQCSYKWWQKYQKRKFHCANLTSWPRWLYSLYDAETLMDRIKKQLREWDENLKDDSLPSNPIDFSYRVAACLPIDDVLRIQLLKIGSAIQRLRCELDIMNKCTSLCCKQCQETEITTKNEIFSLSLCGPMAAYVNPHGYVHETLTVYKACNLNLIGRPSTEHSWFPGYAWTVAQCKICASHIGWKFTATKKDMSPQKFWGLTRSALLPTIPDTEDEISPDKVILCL

[6] = target: T1, Protein cereblon/N(6)-adenosine-methyltransferase catalytic subunit METTL3 (Homo sapiens); assay: PROTAC activity at CRBN/METTL3 in human MOLM-13 cells assessed as induction of METTL3 degradation at 10 uM by Western blot analysis relative to control; format: cell-based
[7] = target: T2, von Hippel-Lindau disease tumor suppressor/N(6)-adenosine-methyltransferase catalytic subunit METTL3 (Homo sapiens, UniProt P40337+Q86U44); assay: PROTAC activity at VHL/METTL3 in human MOLM-13 cells assessed as reduction in METTL3 level at 1 uM incubated for 24 hrs by Western blot analysis; format: cell-based
T2 sequence (Q86U44 2-580 partner limits assumed): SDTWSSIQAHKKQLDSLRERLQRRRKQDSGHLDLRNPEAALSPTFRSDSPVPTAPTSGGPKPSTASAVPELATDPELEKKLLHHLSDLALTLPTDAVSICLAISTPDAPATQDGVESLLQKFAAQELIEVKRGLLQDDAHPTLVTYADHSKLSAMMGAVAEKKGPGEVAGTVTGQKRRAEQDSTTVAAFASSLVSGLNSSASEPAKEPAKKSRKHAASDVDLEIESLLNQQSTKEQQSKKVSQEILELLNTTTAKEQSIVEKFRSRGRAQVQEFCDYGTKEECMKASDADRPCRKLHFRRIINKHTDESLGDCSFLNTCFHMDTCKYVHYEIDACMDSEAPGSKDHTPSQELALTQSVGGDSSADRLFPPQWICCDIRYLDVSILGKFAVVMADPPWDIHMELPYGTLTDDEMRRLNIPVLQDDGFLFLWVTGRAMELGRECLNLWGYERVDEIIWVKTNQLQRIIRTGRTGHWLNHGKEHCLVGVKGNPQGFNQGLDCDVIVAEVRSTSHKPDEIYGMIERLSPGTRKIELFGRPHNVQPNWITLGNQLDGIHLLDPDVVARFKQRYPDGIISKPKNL
T2 sequence (P40337 whole entry): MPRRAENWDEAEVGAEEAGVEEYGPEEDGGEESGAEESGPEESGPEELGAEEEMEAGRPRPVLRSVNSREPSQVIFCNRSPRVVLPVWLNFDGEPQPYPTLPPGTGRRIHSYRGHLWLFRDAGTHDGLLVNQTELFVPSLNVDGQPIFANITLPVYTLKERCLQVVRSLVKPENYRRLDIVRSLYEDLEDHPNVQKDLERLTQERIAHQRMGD

[8] = target: N6-adenosine-methyltransferase catalytic subunit (Homo sapiens) (UniProt Q86U44); assay: Induction of thermal stabilization of METTL3 in human MOLM-13 cells at 52.4 to 54.8 degreeC incubated for 1 hrs by cellular thermal shift assay; format: cell-based
Chain of N6-adenosine-methyltransferase catalytic subunit (Homo sapiens) (Q86U44 whole entry, the tested form may be a part): as the sequence (Q86U44 whole entry, looked up) above

[9] = tested on: HeLa; assay: Binding affinity to METTL3/GFP-fused BRD4 (unknown origin) expressed in HeLa cells presence of MZ1 by Western blot analysis; format: cell-based; conditions: Homo sapiens
[10] = target: T2, von Hippel-Lindau disease tumor suppressor/N(6)-adenosine-methyltransferase catalytic subunit METTL3; assay: PROTAC activity at VHL/METTL3 (unknown origin) expressed in HeLa cells assessed as reduction in BRD4-eGFP_mCherry level incubated for 4 hrs in presence of MZ1 by flow cytometry analysis; format: cell-based

| Structure (SMILES) | IC50 [1] [µM] | Activity [2] | Activity [3] | Activity [4] | Activity [5] [%] | Activity [6] [%] | Activity [7] | Activity [8] | Activity [9] | Activity [10] |
| --- | --- | --- | --- | --- | --- | --- | --- | --- | --- | --- |
| O=C(NCc1cn2cc(CNCC3CCCCC3)ccc2n1)c1cc(=O)n2ccccc2n1 | 5.47 | inactive | inactive | inactive | – | – | – | – | – | – |
| CC1(C)CCN(Cc2cc(F)c(N3CC(=O)NC4(CCN(c5cc(NCCCCCCCCCCC(=O)N6CCN(c7ccc8c(c7)C(=O)N(C7CCC(=O)NC7=O)C8=O)CC6)ncn5)CC4)C3)cc2F)CC1 (centres undefined) | – | – | – | – | 9 | 22 | – | – | – | – |
| CNc1cc(N2CCC3(CC2)CN(c2cc(F)c(CN4CCC(C)(C)CC4)cc2F)CC(=O)N3)ncn1 | 6.17 | inactive | inactive | inactive | – | – | – | – | – | – |
| Cc1ncsc1-c1ccc(CNC(=O)[C@@H]2C[C@H](O)CN2C(=O)[C@@H](NC(=O)CCCCCCCNc2cc(N3CCC4(CC3)CN(c3cc(F)c(CN5CCC(C)(C)CC5)cc3F)CC(=O)N4)ncn2)C(C)(C)C)cc1 | – | – | – | – | – | – | inactive | Active | Active | Active |

— ChEMBL document CHEMBL6127062, “Targeted degradation of METTL3 against acute myeloid leukemia and gastric cancer” (Eur J Med Chem, 2024)
